{"source": "PubChem BioAssay AID256", "about": "(DTP/NCI, 2004)", "tested_on": "CD2F1 mice, L1210 leukemia ip, survival T/C", "test": "NCI In Vivo Anticancer Drug Screen. Data for tumor model L1210 Leukemia (intraperitoneal) in CD2F1 (CDF1) mice", "conditions": "endpoint: mean survival time, higher = longer survival", "how_it_was_run": "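Antitumor effect is scored in animals hosting a serially transplanted tumor. Values compare compound-dosed animals against vehicle-only controls as a simple quotient.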", "key": {"[1]": {"conditions": "dose: 200.0 mg/kg/injection, schedule: Q01DX009 (ip), vehicle: saline with Tween-80"}}, "note": "Where “and” joins values, the source holds several entries; their conditions need not be identical. Equal values may be shown once. Inconclusive results and toxic doses are left out.", "data": [{"compound": "ClP1(c2ccccc2)=NP(Cl)(c2ccccc2)=NP(Cl)(c2ccccc2)=NP(Cl)(c2ccccc2)=N1", "note": "(stereo unspecified)", "values": [{"measurement": "T/C", "setting": "dose: 100.0 mg/kg/injection, schedule: Q04DX003 (ip), vehicle: saline with Tween-80", "value": "96 % of control"}, {"measurement": "T/C", "setting": "dose: 200.0 mg/kg/injection, schedule: Q04DX003 (ip), vehicle: saline with Tween-80", "value": "94 % of control"}]}, {"compound": "NCc1ccc(-n2cnc3c(=O)[nH]c(N)nc32)cc1", "values": [{"measurement": "T/C", "setting": "dose: 50.0 mg/kg/injection, schedule: Q04DX002 (ip), vehicle: saline with Tween-80", "value": "90 % of control"}, {"measurement": "T/C", "setting": "dose: 100.0 mg/kg/injection, schedule: Q04DX002 (ip), vehicle: saline with Tween-80", "value": "107 % of control"}, {"measurement": "T/C", "setting": "dose: 200.0 mg/kg/injection, schedule: Q04DX002 (ip), vehicle: saline with Tween-80", "value": "101 % of control"}]}, {"compound": "Cn1cnc([N+](=O)[O-])c1Sc1cn(C2CC(O)C(CO)O2)c(=O)[nH]c1=O", "note": "(stereo unspecified)", "values": [{"measurement": "T/C", "setting": "dose: 12.5 mg/kg/injection, schedule: Q01DX005 (ip), vehicle: water", "value": "102 % of control"}, {"measurement": "T/C", "setting": "dose: 25.0 mg/kg/injection, schedule: Q01DX005 (ip), vehicle: water", "value": "102 % of control"}, {"measurement": "T/C", "setting": "dose: 50.0 mg/kg/injection, schedule: Q01DX005 (ip), vehicle: water", "value": "104 % of control"}, {"measurement": "T/C", "setting": "dose: 100.0 mg/kg/injection, schedule: Q01DX005 (ip), vehicle: water", "value": "98 % of control"}, {"measurement": "T/C", "setting": "dose: 200.0 mg/kg/injection, schedule: Q01DX005 (ip), vehicle: water", "value": "106 % of control"}]}, {"compound": "C=C1[C@@H](O)[C@]2(O)OC[C@@]34[C@H]1[C@@H](OC(=O)C(C)CC)C(=O)O[C@@H]3C[C@H]1C(C)=CC(=O)[C@@H](O)[C@]1(C)[C@@H]24", "note": "(stereo partly specified)", "values": [{"measurement": "T/C", "setting": "dose: 0.25 mg/kg/injection, schedule: Q01DX009 (ip), vehicle: saline with Tween-80", "value": "102 % of control"}, {"measurement": "T/C", "setting": "dose: 0.5 mg/kg/injection, schedule: Q01DX009 (ip), vehicle: saline with Tween-80", "value": "105 % of control"}, {"measurement": "T/C", "setting": "dose: 1.0 mg/kg/injection, schedule: Q01DX009 (ip), vehicle: saline with Tween-80", "value": "105 % of control"}, {"measurement": "T/C", "setting": "dose: 2.0 mg/kg/injection, schedule: Q01DX009 (ip), vehicle: saline with Tween-80", "value": "108 % of control"}]}, {"compound": "CC(=O)OC1C(NC(=O)N(CCCl)N=O)C(OC(C)=O)C(OC(C)=O)C(NC(=O)N(CCCl)N=O)C1OC(C)=O", "note": "(stereo unspecified)", "values": [{"measurement": "T/C", "setting": "dose: 20.0 mg/kg/injection, schedule: Q01DX001 (ip), vehicle: saline with Tween-80", "value": "124 % of control"}, {"measurement": "T/C", "setting": "dose: 60.0 mg/kg/injection, schedule: Q01DX001 (ip), vehicle: saline with Tween-80", "value": "164 % of control"}, {"measurement": "T/C", "setting": "dose: 90.0 mg/kg/injection, schedule: Q01DX001 (ip), vehicle: saline with Tween-80", "value": "160 % of control"}, {"measurement": "T/C", "setting": "dose: 130.0 mg/kg/injection, schedule: Q01DX001 (ip), vehicle: saline with Tween-80", "value": "174 % of control"}, {"measurement": "T/C", "setting": "dose: 200.0 mg/kg/injection, schedule: Q01DX001 (ip), vehicle: saline with Tween-80", "value": "168 % of control"}, {"measurement": "T/C", "setting": "dose: 300.0 mg/kg/injection, schedule: Q01DX001 (ip), vehicle: saline with Tween-80", "value": "218 % of control"}]}, {"compound": "Cc1ccc(Cc2cc(=O)[nH]c(=O)[nH]2)cc1", "values": [{"measurement": "T/C", "setting": "dose: 25.0 mg/kg/injection, schedule: Q01DX009 (ip), vehicle: Klucel (hydroxypropylcellulose) (HPC)", "value": "96 % of control"}, {"measurement": "T/C", "setting": "dose: 50.0 mg/kg/injection, schedule: Q01DX009 (ip), vehicle: Klucel (hydroxypropylcellulose) (HPC)", "value": "100 % of control"}, {"measurement": "T/C", "setting": "dose: 100.0 mg/kg/injection, schedule: Q01DX009 (ip), vehicle: Klucel (hydroxypropylcellulose) (HPC)", "value": "94 % of control and 96 % of control"}]}, {"compound": "CCC(=O)Oc1ccc(/C=N/NC(N)=S)nc1", "values": [{"measurement": "T/C", "setting": "dose: 100.0 mg/kg/injection, schedule: Q04DX002 (ip), vehicle: other", "value": "108 % of control"}, {"measurement": "T/C", "setting": "dose: 178.0 mg/kg/injection, schedule: Q01DX001 (ip), vehicle: other", "value": "114 % of control"}, {"measurement": "T/C", "setting": "dose: 178.0 mg/kg/injection, schedule: Q04DX003 (ip), vehicle: other", "value": "116 % of control"}, {"measurement": "T/C", "setting": "dose: 200.0 mg/kg/injection, schedule: Q04DX002 (ip), vehicle: other", "value": "123 % of control"}, {"measurement": "T/C", "setting": "dose: 266.0 mg/kg/injection, schedule: Q01DX001 (ip), vehicle: other", "value": "112 % of control"}, {"measurement": "T/C", "setting": "dose: 266.0 mg/kg/injection, schedule: Q04DX003 (ip), vehicle: other", "value": "113 % of control"}, {"measurement": "T/C", "setting": "dose: 400.0 mg/kg/injection, schedule: Q01DX001 (ip), vehicle: other", "value": "118 % of control"}, {"measurement": "T/C", "setting": "dose: 400.0 mg/kg/injection, schedule: Q04DX003 (ip), vehicle: other", "value": "122 % of control"}, {"measurement": "T/C", "setting": "dose: 600.0 mg/kg/injection, schedule: Q01DX001 (ip), vehicle: other", "value": "110 % of control"}, {"measurement": "T/C", "setting": "dose: 600.0 mg/kg/injection, schedule: Q04DX003 (ip), vehicle: other", "value": "119 % of control"}, {"measurement": "T/C", "setting": "dose: 900.0 mg/kg/injection, schedule: Q04DX003 (ip), vehicle: other", "value": "122 % of control"}]}, {"compound": "Clc1ccc(COc2ccc(Cl)cc2Cn2ccnc2)c(Cl)c1", "values": [{"measurement": "T/C", "setting": "dose: 100.0 mg/kg/injection, schedule: Q01DX009 (ip), vehicle: saline with Tween-80", "value": "101 % of control"}, {"measurement": "T/C", "setting": "[1]", "value": "95 % of control"}, {"measurement": "T/C", "setting": "dose: 400.0 mg/kg/injection, schedule: Q01DX009 (ip), vehicle: saline with Tween-80", "value": "98 % of control"}]}, {"compound": "COc1cc(Cl)ccc1NC(=O)N1CCN(c2ccccc2)CC1", "values": [{"measurement": "T/C", "setting": "dose: 12.5 mg/kg/injection, schedule: Q01DX009 (ip), vehicle: saline with Tween-80", "value": "96 % of control"}, {"measurement": "T/C", "setting": "dose: 25.0 mg/kg/injection, schedule: Q01DX009 (ip), vehicle: saline with Tween-80", "value": "96 % of control"}, {"measurement": "T/C", "setting": "dose: 50.0 mg/kg/injection, schedule: Q01DX009 (ip), vehicle: saline with Tween-80", "value": "92 % of control and 93 % of control"}, {"measurement": "T/C", "setting": "[1]", "value": "86 % of control"}]}]}
